Assay results as given in US11332771B2, “Serum-free cell culture medium” (Regeneron Pharmaceuticals, Inc., priority 2013, dated 2022).
Counter-ions that a name gives are not always drawn. Like-named read-outs stand apart in the source and are kept apart here.

Key:
CHO-K1 derived cell line = details: for Average seven-day antibody titer: 100 mg/L ornithine.HCl, with or without 115 mg/L putrescine.2HCl
Procedure: We examined the expression and secretion of recombinant IgG by a CHO-K1 derived cell line. In this experiment, the average antibody titer was determined at day seven in culture under various media formats.

[1] = system: recombinant antibody producing cell line derived from CHO K1; experiment: Antibody titer in Medium 3 with various amounts of ornithine.HCl, 50 mL TubeSpin Bioreactors; type: cell-based, Chinese hamster; details: Medium 3, three days, all three levels of ornithine supplementation, N=3
From the text: The results are depicted in Table 6.

[2] = system: recombinant antibody producing cell line derived from CHO K1 cells; experiment: Cell doubling time in logarithmic growth phase, seed train cultures passaged over 14 days; type: cell-based, Chinese hamster; details: ornithine.HCl 100 mg/L, with or without putrescine.2HCl 115 mg/L
Procedure: The doubling time of a recombinant antibody producing cell line derived from CHO K1 cells in logarithmic growth phase was determined under various cell culture media conditions. Seed train cultures were passaged at 36.5° C. in 250 mL shaker flasks over a period of 14 days in each of three separate media: Medium 1, Medium 2, and Medium 2 containing soy hydrolysate (Medium 2+ Soy). Aliquots of 1 mL were removed from each condition on Day 0 and at the time of seed train passage (every 2 or 3 days), and viable cell counts were conducted using trypan blue exclusion on a CDV™ instrument (Nova Biomedical).

Structure (SMILES): NCCC[C@H](N)C(=O)O [Ornithine, L-ornithine.HCl]
- Average seven-day antibody titer (CHO-K1 derived cell line; Medium 1): 0.94 g/L
- Average seven-day antibody titer (CHO-K1 derived cell line; Medium 2 + Soy): 0.98 g/L
- Average seven-day antibody titer (CHO-K1 derived cell line; Medium 2): 0.65 g/L
- Increase in protein titer (CHO-K1 derived cell line; day seven, in all cases (Medium 1, Medium 2, Medium 2+ Soy), versus low putrescine 0.4 mg/L): at least about two-fold
- Improvement of antibody titer on the average [1]: more than 50%
- Cell doubling time ([2]; Medium 1): 23 h
- Cell doubling time ([2]; Medium 2 + Soy): 20.5 h
- Cell doubling time ([2]; Medium 2): 21 h
